Assays:
[1] = system: androgen-sensitive and castration-resistant human prostate cancer cells; details: androgen-sensitive and castration-resistant human prostate cancer cells in vitro; cited from earlier work
[2] = Plasma pharmacokinetics after single oral dose in female CD-1 mice; assay type: in vivo
Experimental: The PK study was performed by the Certified Research Organization (CRO), Aragen Life Sciences Private Limited (Aragen), Hyderabad, India. All procedures of the present study were in accordance with the guidelines provided by the Committee for the Purpose of Control and Supervision of Experiments on Animals (CPCSEA) as published in The Gazette of India, Jan. 7, 2010. CPCSEA renewal number for institute is 1125/PO/Rc/S/CPCSEA on 13Feb. 2014. Institutional Animal Ethics Committee (IAEC) approval has been taken to initiate the study (IAEC Approval Number: B-011A). The details are presented in the Supplementary Materials.
To minimize the number of mice used in the PK study using a validated LC/MS/MS analysis, both individual (discrete) (set #1: Compound 5, EM=463.2937 and set #2: […], EM=463.2937) and cassette (set #3: Compounds 2, 3, and 7; EMs=459.2686, 462.2874 and 466.3125, respectively, and set #4: Compounds 4, 8, and 9; EMs=460.2749, 464.2999 and 467.3188, respectively) dosing were used.^59,66 The four sets studied were dictated by the exact molecular masses of the compounds as indicated above and in FIG. 3.
The plasma PK profiles were obtained after single oral (PO) dosing of the compounds in mice.
In Table 2, data are presented as the mean of values obtained from three female CD-1 mice. Cmax is the maximum observed plasma concentration. Tmax is the time to maximum concentration. T1/2 is the elimination half-life. AUC represents AUC (0-∞), which is the area under the concentration-time curve from time of dosing extrapolated to infinity. MRT refers to mean residence time. The number in parentheses indicate the rank order from best (1) to worst (8).

MCF7 = assay: MTT antiproliferative assay, MCF7 non-TNBC cells; assay type: cell-based; details: mean of three independent experiments
Experimental: (§1) Compounds 2, 4, 8 and 9, as well as paclitaxel (PTX) were evaluated over a range of concentrations to examine their antiproliferative activities against two non-TNBC cell lines, MCF7 and SKBR3using the well-established 3-(4,5-dimethylthiazolyl-2)-2,5-diphenyl tetrazolium bromide (MTT) assay.^48,55,56 The parent non-deuterated VNLG-152R (Compound 2) was used as the positive control.
(§2) As presented in Table 1 below, the GI50 values of the deuterated Compounds 4, 8 and 9 against the MCF7 cell are identical to the GI50 value of the parent protio VNLG-152R (Compound 2). In contrast, the SKBR3 cell appears to be more sensitive to the deuterated compounds compared to the parent non-deuterated VNLG-152R (Compound 2). The reason for this difference is not understood at this time. The applicant hypothesizes that the enhanced diffusion of these deuterated molecules across the cell membrane of this cell line may result in enhanced intracellular concentrations and inhibition of its proliferation. Each data point is a mean of replicates from three independent experiments.

SKBR3 = assay: MTT antiproliferative assay, SKBR3 non-TNBC cells; assay type: cell-based; details: mean of three independent experiments
Experimental: as §1, §2

[3] = system: MDA-MB-231 tumor xenograft; assay: Anti-tumor activity in MDA-MB-231 xenograft mouse model; assay type: in vivo; details: 20 mg/kg, PO, 5 days/week, 16 days
Experimental: (§3) FIGS. 13A-13D show the anti-tumor activity of VNLG-152R, Compound 4, Compound 8, and Compound 9 in xenograft mouse models. […] In FIGS. 13B and 13D, *=p<0.0001.
(§4) After confirming the improved pharmacokinetic parameters of deuterated compounds 4, 8, and 9, the anti-tumor activity of these compounds was tested in xenograft models of MDA-MB-231 and MDA-MB-468. In both models, the mice for each group were treated with either vehicle (control) or the compounds, each at 20 mg/kg, PO, 5 days/week.

[4] = system: Mnk1, peIF4E, eIF4E, cyclin D1, Bcl-2, Bax in MDA-MB-231 cells; assay: Western blotting of Mnk1 and downstream targets in MDA-MB-231 cells; assay type: cell-based, human; details: MDA-MB-231, 5, 10 and 20 µM, 24 h, Western blot
Source text: The applicant had previously reported that the antiproliferative effects of Compound 1 and our other Mnk1/2 degraders in breast cancer cells was due to degradation of Mnk1/2 with consequent depletion of peIF4E and modulation of the downstream molecular targets.^48,55,56 Thus, the deuterated analogs were further examined for their effects on the degradation of Mnk1 and the other related downstream molecular targets in both MDA-MB-231 and MDA-MB-468 TNBC cells by Western blotting analysis.
The human breast cancer cell lines, MDA-MB-231, MDA-MB-468 were procured from ATCC (Manassas, VA) and cultured in the recommended media supplemented with 10% heat-inactivated standard fetal bovine serum (FBS, GIBCO) and 1% penicillin-streptomycin (10,000 U/ml, Life Technologies) at 37° C. and 5% CO2. Primary antibodies against Mnk1, eIF4E, p-eIF4E, Cyclin D1, BCL2, BAX, β-actin, and secondary RP-conjugated anti-rabbit used in the study were procured from Cell Signaling Technology, USA. Cells were lysed with radioimmunoprecipitation assay (RIPA) buffer supplemented with 1× protease inhibitors (Roche, Indianapolis, IN, USA), phosphatase inhibitors (Thermo Scientific, Waltham, MA, USA), 1 mmol/L EDTA and 1 mmol/L PMSF (Sigma) and immunoblotting analyses were performed as described previously.^48,64
The non-deuterated VNLG-152R (Compound 2) and the vehicle, DMSO were used as positive and negative controls, respectively. Equal protein concentrations from breast cancer cells treated with the compounds at different concentration (5, 10 and 20 µM) for 24 h were separated by SDS-PAGE and Western blots probed with the respective protein antibodies. Vehicle treated cells were included as a control, and all blots were reprobed for R-actin for loading control.

[5] = system: Mnk1, peIF4E, cyclin D1 in MDA-MB-231 cells; assay: Western blotting of Mnk1 and downstream targets in MDA-MB-231 cells (mechanism study); assay type: cell-based, human; details: MDA-MB-231, 24 hours, FIG. 14B
Experimental: FIGS. 14A and 14B show the in vitro effects of VNLG-152R on synoviolin 1 (SYVN1) and other targets in MDA-MB-231 cells.
After confirming the anti-tumor effect of VNLG-152R, the molecular mechanism of VNLG-152R was studied, in order to help identify potential new molecular targets for treatment. Using an established procedure^70,71, a label-free proteomics analysis was conducted. MDA-MB-231 cells were treated for 24 hours with VNLG-152R in the concentrations indicated in FIGS. 14A and 14B, followed by Western blotting of whole cell lysates.

[6] = system: MDA-MB-468 tumor xenograft; assay: Anti-tumor activity in MDA-MB-468 xenograft mouse model; assay type: in vivo; details: 20 mg/kg, PO, 5 days/week, 16 days
Experimental: as §3, §4

[7] = single p.o. dose 10 mg/kg, female CD-1 mice, plasma

For `CC1=C(/C=C/C(C)=C/C=C/C(C)=C/C(=O)Nc2ccc(F)cc2)C(C)(C)CCC1n1ccnc1` (racemic) [Compound 2, (±) 4-Imidazolyl-4(H)-(4′-fluoro(phenyl))-(E)-retinamide], the “anti-proliferative and anti-metastatic activities” value [1] is listed as “potent”, the “clearance from systemic circulation (plasma concentration versus time profile)” value ([2]; single PO dosing, mice, FIGS. 12A-12C) is listed as “could not be detected after 8 hours” and the “AUC (0-∞)” value [2, 7] is listed as 22764.75 ng·h/mL. The “MRT (mean residence time)” value [2, 7] was 3.02 h, the “T1/2 (elimination half-life)” value [2, 7] was 3.61 h and the Tmax [2, 7] was 0.83 h. The Cmax ([2]; single p.o. dose 10 mg/kg, female CD-1 mice, plasma, mean of three mice) was 4651.88 ng/mL, the GI50 (MCF7) was 350 ± 110 nM and the GI50 (SKBR3) was 260 ± 120 nM. For the same molecule, the “reduction of tumor growth” value [3] was 87%, the “expression of Mnk1” value [4] was “significantly and dose-dependently reduced” and the “expression of peIF4E” value [4] was “significantly and dose-dependently reduced”. The “expression of total eIF4E” value [4] was “without noticeable effects”, the Mnk1 level [5] was “dose-dependent Mnk1 depletion” and the “cyclin D1 level” value [5] was “suppression”. The peIF4E level [5] was “suppression” and the “reduction of tumor growth” value [6] was 81%.

Source: patent publication US20250179029A1, “DEUTERATED RETINOIDAL COMPOUNDS AND SYNTHESIS AND USES THEREOF” (UNIVERSITY OF MARYLAND, BALTIMORE, priority 2022, published 2025)
